Measured values from patent US10072026B2, “Crystalline form of 3-((1R,3s,5S)-3-((7-((5-methyl-1H-pyrazol-3-yl)amino)-1,6-naphthyridin-5-yl)amino)-8-azabicyclo[3.2.1]octan-8-yl)propanenitrile” (priority 2015, dated 2018).
Read-outs that look alike come from different tables or passages of the source.

What was measured:
Tyk2 = Tyk2 (Homo sapiens (Human), UniProt P29597); assay: LanthaScreen JAK biochemical assay (Tyk2); settings: for Ki: read-out: Tyk 2 (pKi) (converted)
JAK2 = JAK2 (Homo sapiens (Human), UniProt O60674); assay: LanthaScreen JAK biochemical assay (JAK2); settings: for Ki: read-out: JAK 2 (pKi) (converted)
JAK2, sequence (O60674 whole entry): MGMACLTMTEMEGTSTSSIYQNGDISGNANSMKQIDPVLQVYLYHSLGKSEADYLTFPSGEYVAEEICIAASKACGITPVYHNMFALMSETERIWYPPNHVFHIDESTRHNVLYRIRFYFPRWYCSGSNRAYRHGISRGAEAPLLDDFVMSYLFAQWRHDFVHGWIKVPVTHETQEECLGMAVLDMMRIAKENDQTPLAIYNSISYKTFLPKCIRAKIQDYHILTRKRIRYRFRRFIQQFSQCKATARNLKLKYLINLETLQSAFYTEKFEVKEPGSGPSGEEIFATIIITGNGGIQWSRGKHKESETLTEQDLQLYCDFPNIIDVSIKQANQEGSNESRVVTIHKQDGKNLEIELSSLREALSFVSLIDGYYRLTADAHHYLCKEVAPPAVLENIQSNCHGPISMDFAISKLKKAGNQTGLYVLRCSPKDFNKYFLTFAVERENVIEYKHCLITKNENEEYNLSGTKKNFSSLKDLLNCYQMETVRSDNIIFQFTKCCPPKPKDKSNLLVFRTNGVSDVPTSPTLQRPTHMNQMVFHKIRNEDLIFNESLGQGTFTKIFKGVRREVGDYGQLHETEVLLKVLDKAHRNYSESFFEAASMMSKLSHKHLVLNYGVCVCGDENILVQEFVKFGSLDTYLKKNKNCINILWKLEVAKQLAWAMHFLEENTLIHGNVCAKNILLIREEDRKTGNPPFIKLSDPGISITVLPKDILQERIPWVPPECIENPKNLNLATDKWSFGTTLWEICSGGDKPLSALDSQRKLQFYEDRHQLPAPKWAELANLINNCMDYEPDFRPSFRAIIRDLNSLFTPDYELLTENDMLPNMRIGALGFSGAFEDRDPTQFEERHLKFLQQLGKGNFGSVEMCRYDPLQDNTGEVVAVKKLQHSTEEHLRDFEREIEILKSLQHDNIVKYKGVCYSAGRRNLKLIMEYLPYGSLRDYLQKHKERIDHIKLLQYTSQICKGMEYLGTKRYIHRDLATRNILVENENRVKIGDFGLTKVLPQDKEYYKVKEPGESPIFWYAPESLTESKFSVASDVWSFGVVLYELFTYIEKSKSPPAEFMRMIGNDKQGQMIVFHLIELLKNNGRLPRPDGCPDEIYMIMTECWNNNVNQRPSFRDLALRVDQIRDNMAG

JAK1 = JAK1 (Homo sapiens (Human), UniProt P23458); assay: LanthaScreen JAK biochemical assay (JAK1)
JAK1, sequence (P23458 whole entry): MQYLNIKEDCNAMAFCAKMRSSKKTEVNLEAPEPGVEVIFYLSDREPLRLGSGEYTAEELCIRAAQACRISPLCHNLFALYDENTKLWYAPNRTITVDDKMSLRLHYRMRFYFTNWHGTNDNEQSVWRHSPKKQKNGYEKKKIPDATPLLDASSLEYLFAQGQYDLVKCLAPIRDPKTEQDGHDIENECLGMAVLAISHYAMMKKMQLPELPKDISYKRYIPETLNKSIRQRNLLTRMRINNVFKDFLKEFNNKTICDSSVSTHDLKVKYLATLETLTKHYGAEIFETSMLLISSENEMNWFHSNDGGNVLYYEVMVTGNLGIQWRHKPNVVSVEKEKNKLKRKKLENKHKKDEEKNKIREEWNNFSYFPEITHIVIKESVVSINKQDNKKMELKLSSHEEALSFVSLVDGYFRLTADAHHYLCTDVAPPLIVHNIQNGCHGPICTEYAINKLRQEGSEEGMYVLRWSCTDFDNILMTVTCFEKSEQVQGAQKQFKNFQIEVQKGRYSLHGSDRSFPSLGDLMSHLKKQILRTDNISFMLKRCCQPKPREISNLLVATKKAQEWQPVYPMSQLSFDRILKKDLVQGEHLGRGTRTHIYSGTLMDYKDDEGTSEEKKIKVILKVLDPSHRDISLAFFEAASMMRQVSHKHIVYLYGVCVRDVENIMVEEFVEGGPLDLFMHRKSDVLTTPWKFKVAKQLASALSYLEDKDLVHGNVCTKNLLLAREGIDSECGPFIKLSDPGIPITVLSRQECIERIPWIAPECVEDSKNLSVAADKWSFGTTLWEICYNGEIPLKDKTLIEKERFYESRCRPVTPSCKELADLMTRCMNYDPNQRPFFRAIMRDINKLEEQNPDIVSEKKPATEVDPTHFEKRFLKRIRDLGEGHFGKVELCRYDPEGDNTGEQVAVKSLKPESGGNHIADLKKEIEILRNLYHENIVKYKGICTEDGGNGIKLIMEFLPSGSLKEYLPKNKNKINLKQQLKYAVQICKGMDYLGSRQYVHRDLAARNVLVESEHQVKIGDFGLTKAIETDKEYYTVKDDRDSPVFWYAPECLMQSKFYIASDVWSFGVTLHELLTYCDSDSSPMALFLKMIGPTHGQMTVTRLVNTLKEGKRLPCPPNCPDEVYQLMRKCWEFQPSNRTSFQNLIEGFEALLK

[1] = system: IL-4 induced STAT6 phosphorylation in THP-1 human monocytic cells; assay: Cellular JAK potency assay, THP-1
[2] = system: IL-13 induced STAT6 phosphorylation in BEAS-2B human lung epithelial cells; assay: AlphaScreen cellular JAK potency assay, BEAS-2B
[3] = IL-4 induced STAT6 phosphorylation, THP-1 cells
[4] = Homo sapiens, THP-1, read-out: THP-1 IL4 pIC50 (converted)
[5] = read-out: JAK 1 (pKi) (converted)
[6] = IL-13 induced STAT6 phosphorylation, BEAS-2B cells
[7] = BEAS-2B cells, IL-13 induced STAT6 phosphorylation
[8] = THP-1 cells, IL-4 induced STAT6 phosphorylation
[9] = Homo sapiens, BEAS-2B, read-out: BEAS2B pIC50 (converted)

Tyk2, sequence (P29597 whole entry): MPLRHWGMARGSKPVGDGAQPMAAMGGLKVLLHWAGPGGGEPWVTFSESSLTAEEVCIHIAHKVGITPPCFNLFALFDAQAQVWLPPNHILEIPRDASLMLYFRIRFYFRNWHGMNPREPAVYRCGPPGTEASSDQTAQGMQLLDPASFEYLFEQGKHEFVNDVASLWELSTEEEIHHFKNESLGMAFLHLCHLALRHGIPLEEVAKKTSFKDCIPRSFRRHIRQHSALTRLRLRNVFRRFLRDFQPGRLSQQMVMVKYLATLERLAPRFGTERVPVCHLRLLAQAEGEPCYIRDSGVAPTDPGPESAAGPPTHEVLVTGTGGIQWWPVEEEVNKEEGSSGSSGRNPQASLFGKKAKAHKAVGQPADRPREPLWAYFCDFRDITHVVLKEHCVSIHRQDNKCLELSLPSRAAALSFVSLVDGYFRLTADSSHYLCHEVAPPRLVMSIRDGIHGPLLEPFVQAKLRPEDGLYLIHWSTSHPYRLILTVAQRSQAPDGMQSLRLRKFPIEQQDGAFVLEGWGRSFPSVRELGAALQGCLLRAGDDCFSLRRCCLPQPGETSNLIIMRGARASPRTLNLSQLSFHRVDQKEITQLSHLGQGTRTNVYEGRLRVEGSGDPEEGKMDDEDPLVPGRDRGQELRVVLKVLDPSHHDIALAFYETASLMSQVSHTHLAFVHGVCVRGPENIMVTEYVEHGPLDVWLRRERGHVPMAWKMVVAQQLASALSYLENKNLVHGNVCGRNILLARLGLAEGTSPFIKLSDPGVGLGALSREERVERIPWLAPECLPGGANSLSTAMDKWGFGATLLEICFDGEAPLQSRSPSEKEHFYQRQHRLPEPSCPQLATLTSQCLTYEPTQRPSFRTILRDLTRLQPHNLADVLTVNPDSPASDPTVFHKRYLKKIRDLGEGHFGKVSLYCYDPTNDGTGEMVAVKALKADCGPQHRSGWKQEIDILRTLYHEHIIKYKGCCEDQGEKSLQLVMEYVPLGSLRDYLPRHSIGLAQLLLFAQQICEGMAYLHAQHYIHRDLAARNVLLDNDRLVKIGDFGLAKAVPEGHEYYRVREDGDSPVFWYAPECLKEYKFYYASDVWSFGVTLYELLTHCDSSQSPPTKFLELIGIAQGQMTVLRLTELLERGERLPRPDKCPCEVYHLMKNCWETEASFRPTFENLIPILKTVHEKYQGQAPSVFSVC

COCCCN1[C@@H]2CC[C@H]1C[C@H](Nc1nc(Nc3cc(C)[nH]n3)cc3ncccc13)C2 [Example 1-15]
Tyk 2 (pKi) (Tyk2): C (C represents a pKi value between 7 and 9 (Ki between 100 nM and 1 nM)) | JAK 2 (pKi) (JAK2): C (C represents a pKi value between 7 and 9 (Ki between 100 nM and 1 nM)) | JAK 1 (pKi) (JAK1): C (C represents a pKi value between 7 and 9 (Ki between 100 nM and 1 nM)) | THP-1 IL4 pIC50 [1, 3]: C (C represents a pEC50 value<6.7 (EC50>200 nM))

Cc1cc(Nc2cc3ncccc3c(N[C@@H]3C[C@H]4CC[C@@H](C3)N4C3CCCOC3=O)n2)n[nH]1 (some centres unmarked) [Example 1-28]
Ki (Tyk2): 1 to 100 nM | Ki (JAK2): 1 to 100 nM | IC50 [1, 4]: > 200 nM

Cc1cc(Nc2cc3ncccc3c(N[C@@H]3C[C@H]4CCC[C@@H](C3)N4CC(N)=O)n2)n[nH]1 [Example 1-37]
Tyk 2 (pKi) (Tyk2): C (C represents a pKi value between 7 and 9 (Ki between 100 nM and 1 nM)) | JAK 2 (pKi) (JAK2): A (A represents a pKi value≥10 (Ki≤0.1 nM)) | THP-1 IL4 pIC50 [1, 3]: B (B represents a pEC50 value between 6.7 and 7.5 (EC50 between 200 nM and 32 nM))

Cc1cc(Nc2cc3ncccc3c(N[C@@H]3C[C@H]4CC[C@@H](C3)N4C(=O)CF)n2)n[nH]1 [Example 2-2]
Ki (Tyk2): 1 to 100 nM | Ki (JAK2): 1 to 100 nM | Ki (JAK1; [5]): 0.1 to 1 nM

CCOC(=O)N1[C@@H]2CCC[C@H]1C[C@H](Nc1nc(Nc3cc(C)[nH]n3)cc3ncccc13)C2 [Example 3-6]
Tyk 2 (pKi) (Tyk2): B (B represents a pKi value between 9 and 10 (Ki between 1 nM and 0.1 nM)) | JAK 1 (pKi) (JAK1): B (B represents a pKi value between 9 and 10 (Ki between 1 nM and 0.1 nM)) | THP-1 IL4 pIC50 [1, 3]: A (A represents a pEC50 value≥7.5 (EC50≤32 nM))

Cc1cc(Nc2cc3ncccc3c(N[C@@H]3C[C@H]4CC[C@@H](C3)N4S(C)(=O)=O)n2)n[nH]1 [Example 4-1]
Ki (Tyk2): 0.1 to 1 nM | Ki (JAK2): 0.1 to 1 nM | IC50 [1, 4]: < 31.6 nM

Cc1cc(Nc2cc3nc(CO)ccc3c(N[C@@H]3C[C@H]4CC[C@@H](C3)N4S(C)(=O)=O)n2)n[nH]1 [Example 5-12]
Ki (Tyk2): 0.1 to 1 nM | IC50 [1, 4]: 31.6 to 200 nM

Cc1cc(Nc2cc3nc(CO)ccc3c(N[C@@H]3C[C@H]4CC[C@@H](C3)N4CCCF)n2)n[nH]1 [Example 5-14]
BEAS2B pIC50 [2, 6]: B (B represents a pEC50 value between 6.7 and 7.5 (EC50 between 200 nM and 32 nM)) | JAK 2 (pKi) (JAK2): B (B represents a pKi value between 9 and 10 (Ki between 1 nM and 0.1 nM)) | JAK 1 (pKi) (JAK1): B (B represents a pKi value between 9 and 10 (Ki between 1 nM and 0.1 nM)) | THP-1 IL4 pIC50 [1, 3]: B (B represents a pEC50 value between 6.7 and 7.5 (EC50 between 200 nM and 32 nM))

Cc1cc(Nc2cc3nc(CN4CCOCC4)ccc3c(N[C@@H]3C[C@H]4CCC[C@@H](C3)N4S(C)(=O)=O)n2)n[nH]1 [Example 5-22]
BEAS2B pIC50 [2, 6]: A (A represents a pEC50 value≥7.5 (EC50≤32 nM)) | JAK 2 (pKi) (JAK2): A (A represents a pKi value≥10 (Ki≤0.1 nM)) | JAK 1 (pKi) (JAK1): A (A represents a pKi value≥10 (Ki≤0.1 nM)) | THP-1 IL4 pIC50 [1, 3]: B (B represents a pEC50 value between 6.7 and 7.5 (EC50 between 200 nM and 32 nM))

Cc1cnc2cc(Nc3cc(C)[nH]n3)nc(N[C@@H]3C[C@H]4CC[C@@H](C3)N4Cc3ccncc3)c2c1 [Example 6-2]
BEAS2B pIC50 [2, 7]: B (B represents a pEC50 value between 6.7 and 7.5 (EC50 between 200 nM and 32 nM)) | JAK 2 (pKi) (JAK2): B (B represents a pKi value between 9 and 10 (Ki between 1 nM and 0.1 nM)) | JAK 1 (pKi) (JAK1): B (B represents a pKi value between 9 and 10 (Ki between 1 nM and 0.1 nM)) | THP-1 IL4 pIC50 [1, 8]: A (A represents a pEC50 value≥7.5 (EC50≤32 nM))

COc1cnc2cc(Nc3cc(C)[nH]n3)nc(N[C@@H]3C[C@H]4CC[C@@H](C3)N4CCC(F)(F)F)c2c1 [Example 6-15]
BEAS2B pIC50 [2, 7]: A (A represents a pEC50 value≥7.5 (EC50≤32 nM)) | JAK 2 (pKi) (JAK2): B (B represents a pKi value between 9 and 10 (Ki between 1 nM and 0.1 nM)) | JAK 1 (pKi) (JAK1): B (B represents a pKi value between 9 and 10 (Ki between 1 nM and 0.1 nM)) | THP-1 IL4 pIC50 [1, 8]: A (A represents a pEC50 value≥7.5 (EC50≤32 nM))

COc1cnc2cc(Nc3cc(C)[nH]n3)nc(N[C@@H]3C[C@H]4CC[C@@H](C3)N4Cc3ccncc3)c2c1 [Example 6-24]
BEAS2B pIC50 [2, 7]: B (B represents a pEC50 value between 6.7 and 7.5 (EC50 between 200 nM and 32 nM)) | JAK 2 (pKi) (JAK2): B (B represents a pKi value between 9 and 10 (Ki between 1 nM and 0.1 nM)) | JAK 1 (pKi) (JAK1): B (B represents a pKi value between 9 and 10 (Ki between 1 nM and 0.1 nM)) | THP-1 IL4 pIC50 [1, 8]: B (B represents a pEC50 value between 6.7 and 7.5 (EC50 between 200 nM and 32 nM))

COc1cnc2cc(Nc3cc(C)[nH]n3)nc(N[C@@H]3C[C@H]4CCC[C@@H](C3)N4Cc3ccncc3)c2c1 [Example 6-28]
BEAS2B pIC50 [2, 7]: A (A represents a pEC50 value≥7.5 (EC50≤32 nM)) | JAK 2 (pKi) (JAK2): B (B represents a pKi value between 9 and 10 (Ki between 1 nM and 0.1 nM)) | JAK 1 (pKi) (JAK1): B (B represents a pKi value between 9 and 10 (Ki between 1 nM and 0.1 nM)) | THP-1 IL4 pIC50 [1, 8]: A (A represents a pEC50 value≥7.5 (EC50≤32 nM))

COC(=O)c1cnc2cc(Nc3cc(C)[nH]n3)nc(N[C@@H]3C[C@H]4CC[C@@H](C3)N4S(C)(=O)=O)c2c1 [Example 6-33]
Ki (Tyk2): 0.1 to 1 nM | IC50 [1, 4]: 31.6 to 200 nM

CCS(=O)(=O)N1[C@@H]2CC[C@H]1C[C@H](Nc1nc(Nc3cc(C)[nH]n3)cc3ncc(C(=O)OC)cc13)C2 [Example 6-34]
Ki (Tyk2): 0.1 to 1 nM | IC50 [1, 4]: < 31.6 nM

COC(=O)c1cnc2cc(Nc3cc(C)[nH]n3)nc(N[C@@H]3C[C@H]4CC[C@@H](C3)N4C3CCOC3=O)c2c1 (some centres unmarked) [Example 6-35]
Ki (Tyk2): 0.1 to 1 nM | Ki (JAK1; [5]): 0.1 to 1 nM | IC50 [1, 4]: 31.6 to 200 nM

CCS(=O)(=O)N1[C@@H]2CC[C@H]1C[C@H](Nc1nc(Nc3cc(C)[nH]n3)cc3nccc(OC)c13)C2 [Example 7-2]
IC50 [2, 9]: < 31.6 nM | Ki (JAK2): 0.1 to 1 nM | Ki (JAK1; [5]): 0.1 to 1 nM | IC50 [1, 4]: < 31.6 nM

COc1ccnc2cc(Nc3cc(C)[nH]n3)nc(N[C@@H]3C[C@H]4CC[C@@H](C3)N4CCC#N)c12 [Example 7-6]
BEAS2B pIC50 [2, 7]: B (B represents a pEC50 value between 6.7 and 7.5 (EC50 between 200 nM and 32 nM)) | JAK 2 (pKi) (JAK2): B (B represents a pKi value between 9 and 10 (Ki between 1 nM and 0.1 nM)) | JAK 1 (pKi) (JAK1): B (B represents a pKi value between 9 and 10 (Ki between 1 nM and 0.1 nM)) | THP-1 IL4 pIC50 [1, 8]: A (A represents a pEC50 value≥7.5 (EC50≤32 nM))

COc1ccnc2cc(Nc3cc(C)[nH]n3)nc(N[C@@H]3C[C@H]4CC[C@@H](C3)N4CC(F)(F)F)c12 [Example 7-9]
IC50 [2, 9]: < 31.6 nM | Ki (JAK2): 0.1 to 1 nM | Ki (JAK1): 0.1 to 1 nM | IC50 [1, 4]: < 31.6 nM

COc1ccnc2cc(Nc3cc(C)[nH]n3)nc(N[C@@H]3C[C@H]4CC[C@@H](C3)N4C3(CC#N)COC3)c12 [Example 7-10]
Ki (Tyk2): 0.1 to 1 nM | Ki (JAK2): 0.1 to 1 nM | Ki (JAK1; [5]): 0.1 to 1 nM

Cc1cc(Nc2nc(N[C@@H]3C[C@H]4CC[C@@H](C3)N4Cc3ccncc3)c3cccnc3c2F)n[nH]1 [Example 8-6]
BEAS2B pIC50 [2, 7]: B (B represents a pEC50 value between 6.7 and 7.5 (EC50 between 200 nM and 32 nM)) | JAK 2 (pKi) (JAK2): B (B represents a pKi value between 9 and 10 (Ki between 1 nM and 0.1 nM)) | JAK 1 (pKi) (JAK1): B (B represents a pKi value between 9 and 10 (Ki between 1 nM and 0.1 nM)) | THP-1 IL4 pIC50 [1, 8]: B (B represents a pEC50 value between 6.7 and 7.5 (EC50 between 200 nM and 32 nM))

Cc1cc(Nc2nc(N[C@@H]3C[C@H]4CCC[C@@H](C3)N4S(C)(=O)=O)c3cccnc3c2F)n[nH]1 [Example 8-10]
BEAS2B pIC50 [2, 7]: A (A represents a pEC50 value≥7.5 (EC50≤32 nM)) | JAK 2 (pKi) (JAK2): A (A represents a pKi value≥10 (Ki≤0.1 nM)) | JAK 1 (pKi) (JAK1): A (A represents a pKi value≥10 (Ki≤0.1 nM)) | THP-1 IL4 pIC50 [1, 8]: A (A represents a pEC50 value≥7.5 (EC50≤32 nM))

Cc1cc(Nc2nc(N[C@@H]3C[C@H]4CCC[C@@H](C3)N4S(=O)(=O)c3cccnc3)c3cccnc3c2F)n[nH]1 [Example 8-12]
BEAS2B pIC50 [2, 7]: A (A represents a pEC50 value≥7.5 (EC50≤32 nM)) | JAK 2 (pKi) (JAK2): B (B represents a pKi value between 9 and 10 (Ki between 1 nM and 0.1 nM)) | JAK 1 (pKi) (JAK1): B (B represents a pKi value between 9 and 10 (Ki between 1 nM and 0.1 nM)) | THP-1 IL4 pIC50 [1, 8]: A (A represents a pEC50 value≥7.5 (EC50≤32 nM))

Cc1cnc2c(F)c(Nc3cc(C)[nH]n3)nc(N[C@@H]3C[C@H]4CCC[C@@H](C3)N4S(C)(=O)=O)c2c1 [Example 8-22]
BEAS2B pIC50 [2, 7]: B (B represents a pEC50 value between 6.7 and 7.5 (EC50 between 200 nM and 32 nM)) | JAK 2 (pKi) (JAK2): B (B represents a pKi value between 9 and 10 (Ki between 1 nM and 0.1 nM)) | JAK 1 (pKi) (JAK1): B (B represents a pKi value between 9 and 10 (Ki between 1 nM and 0.1 nM)) | THP-1 IL4 pIC50 [1, 8]: B (B represents a pEC50 value between 6.7 and 7.5 (EC50 between 200 nM and 32 nM))
